Laboratory results from US20250204541A1, “GAS PHASE TREATMENT OF PRODUCE” (priority 2022, published 2025).

Assays:
Format in all cases: in vivo
[1] = test system: Colletotrichum gloeosporioides (Cg); assay: Antifungal activity of vapor against Colletotrichum gloeosporioides in avocados; details: Example 9, vapor of 3 mL in a Petri dish for 72 hours, 7 days of incubation
Description: Example 7. The antifungal activity of AITC and DADS vapor against Colletotrichum gloeosporioides (Cg) was tested in avocados. All test pieces were wounded by removing the stem and infected by dispensing 1000 Cg spores suspended in 10 μL of water into the wound. The test groups consisted of avocados that were: untreated and uninfected; untreated and infected; treated by dipping in a solution of 0.1 g/L of prochloraz; exposed to the vapor of 3 mL of AITC disposed in a Petri dish; and exposed to the vapor of 3 mL of DADS disposed in a Petri dish. FIG. 9 quantifies the infection results. AITC vapor reduced the incidence of Cg mold by 97% compared to the untreated test group and 70% compared to the prochloraz treated test group. DADS vapor reduced the incidence of Cg mold by 60% compared to the untreated test group.
Example 8. The antifungal activity of a range of DADS vapor exposure times was tested against Cg in avocados. All test pieces were wounded by removing the stem and infected by dispensing 1000 Cg spores suspended in 10 μL of water into the wound. The test groups consisted of avocados that were: infected and untreated; and exposed to the vapor of 3 mL of DADS in a Petri dish for 24 hours, 48 hours, and 72 hours. FIG. 10 quantifies the infection results. Test group exposed to DADS vapor at all exposure times reduced the incidence of Cg mold compared to the untreated test group. A 24 hour DADS exposure reduced the incidence of Cg mold by 8%. A 48 hour DADS exposure reduced the incidence of Cg mold by 25%. A 72 hour DADS exposure reduced the incidence of Cg mold by 57%.
Example 9. The antifungal activity of a range of AITC and carvacrol vapor exposure times was tested against Cg in avocados. To measure the effect of the various treatments on ripening, durometer shore was taken after 7 days of incubation at ambient temperature and high humidity. All samples were wounded by removing the stem and infected by dispensing 1000 Cg spores suspended in 10 μL of water in the wound. The test groups consisted of avocados that were: infected and left untreated on the benchtop; infected and left untreated under a fume hood; exposed to the vapor of 3 mL of AITC in a Petri dish for 24 hours, 48 hours, and 72 hours; and exposed to the vapor of 3 mL of carvacrol in a Petri dish for 72 hours. FIG. 11 quantifies the infection results. […] All exposure times to AITC vapor reduced the incidence of Cg mold compared to the untreated samples. A 24 hour AITC exposure reduced the incidence of Cg mold by 90%. A 48 hour AITC exposure reduced the incidence of Cg mold by 97%. A 72 hour AITC exposure reduced the incidence of Cg mold by 83%. […]
Example 21. The antifungal activity of avocados exposed to AITC vapor and prochloraz was tested against Cg in avocados. To measure the effect of the various treatments on ripening, durometer shore was taken after 5 days of incubation at ambient temperature (about 20° C. to about 25° C.) and high humidity (about 88% relative humidity to about 93% relative humidity). All samples were wounded by removing the stem and infected by dispensing 1000 Cg spores suspended in 10 μL of water in the wound. Exposure to vapor was done by placing the avocados in an airtight container, dispensing AITC onto Whatman filter paper discs, suspending the discs in front of a battery-powered fan, closing the container and incubating the avocados for 30 minutes. After vapor exposure, the avocados were left at ambient temperature, high humidity, and assessed for Cg mold on day 5. Treatment groups consisted of avocados that were: exposed for 30 minutes to the vapor of 125 μL of AITC disposed on a filter paper disc; dipped in a solution of 0.1 g/L of prochloraz and placed to dry on a rack in front of a fan for 30 min; infected and left untreated; and uninfected and untreated. […] To prepare the 0.1 g/L of prochloraz, 10 mg of prochloraz was mixed with 10 mL of ethanol and 90 mL of water. […] A 24 hour AITC exposure reduced the incidence of Cg mold by 90%. […]

[2] = test system: Penicillium digitatum (Pd); assay: Antifungal activity of vapor against Penicillium digitatum in wounded, infected mandarins; details: vapor of 62.5 μL AITC and/or 125 μL of all other compounds for 30 minutes, assessed after 6 days
avocados = assay: Durometer shore (ripening/firmness) of treated avocados; details: Example 21; Cg-infected avocados; after 5 days; AITC 125 μL vapor 30 minutes, prochloraz 0.1 g/L dip
Description: Example 9. The antifungal activity of a range of AITC and carvacrol vapor exposure times was tested against Cg in avocados. To measure the effect of the various treatments on ripening, durometer shore was taken after 7 days of incubation at ambient temperature and high humidity. All samples were wounded by removing the stem and infected by dispensing 1000 Cg spores suspended in 10 μL of water in the wound. The test groups consisted of avocados that were: infected and left untreated on the benchtop; infected and left untreated under a fume hood; exposed to the vapor of 3 mL of AITC in a Petri dish for 24 hours, 48 hours, and 72 hours; and exposed to the vapor of 3 mL of carvacrol in a Petri dish for 72 hours. FIG. 11 quantifies the infection results. […] All exposure times to AITC vapor reduced the incidence of Cg mold compared to the untreated samples. A 24 hour AITC exposure reduced the incidence of Cg mold by 90%. A 48 hour AITC exposure reduced the incidence of Cg mold by 97%. A 72 hour AITC exposure reduced the incidence of Cg mold by 83%.
Example 10. The antifungal activity of a range of AITC vapor exposure times were tested against Cg in avocados. To measure the effect of the various treatments on ripening, durometer shore was taken after 6 days of incubation at ambient temperature and high humidity. All samples were wounded by removing the stem and infected by dispensing 1000 Cg spores suspended in 10 μL of water in each wound. The test groups consisted of avocados that were: infected and left untreated on the benchtop; infected and left untreated in a fume hood; exposed to the vapor of 3 mL of AITC in a Petri dish for 24 hours, 48 hours, and 72 hours. FIG. 13 quantifies the infection results. […] All exposure times to AITC vapor reduced the incidence of Cg mold compared to the untreated samples.
Example 21. The antifungal activity of avocados exposed to AITC vapor and prochloraz was tested against Cg in avocados. To measure the effect of the various treatments on ripening, durometer shore was taken after 5 days of incubation at ambient temperature (about 20° C. to about 25° C.) and high humidity (about 88% relative humidity to about 93% relative humidity). All samples were wounded by removing the stem and infected by dispensing 1000 Cg spores suspended in 10 μL of water in the wound. Exposure to vapor was done by placing the avocados in an airtight container, dispensing AITC onto Whatman filter paper discs, suspending the discs in front of a battery-powered fan, closing the container and incubating the avocados for 30 minutes. After vapor exposure, the avocados were left at ambient temperature, high humidity, and assessed for Cg mold on day 5. Treatment groups consisted of avocados that were: exposed for 30 minutes to the vapor of 125 μL of AITC disposed on a filter paper disc; dipped in a solution of 0.1 g/L of prochloraz and placed to dry on a rack in front of a fan for 30 min; infected and left untreated; and uninfected and untreated. […] To prepare the 0.1 g/L of prochloraz, 10 mg of prochloraz was mixed with 10 mL of ethanol and 90 mL of water. […] A 24 hour AITC exposure reduced the incidence of Cg mold by 90%. […] The mean shore value for the untreated avocados was 28.8 (standard deviation (SD)=10.8). The mean shore value for the infected avocados was 47.3 (SD=11.8). The mean shore value of the positive control, prochloraz treated avocados was 44.3 (SD=14.7). The mean shore value of the AITC treated avocados was 61.1 (SD=10.5).
Durometer Shore Measurement: A Fruit Hardness Tester—HPE III Fff w/Sphere Ø 5.0 mm Test Anvil is used for the measurements. The Operating Procedure is as follows: • 1) At room temperature and 1 atm pressure, switch on the measuring device and press the hull or sleeve against the specimen so that the contact surface of the pressure plate rests on the fruit. […]

SMILES: Cc1ccc(C(C)C)cc1O [carvacrol]
- reduction of the incidence of Cg mold [1]: did not reduce the incidence of Cg mold

SMILES: C=CCc1ccc(O)c(OC)c1 [eugenol]
- performance against Pd compared with untreated samples [2]: performed better than the untreated samples

SMILES: CCCN(CCOc1c(Cl)cc(Cl)cc1Cl)C(=O)n1ccnc1 [prochloraz, reference compound]
- mean shore value (avocados): 44.3 (SD=14.7) shore
